In test [1] the test system is NMDA receptor subunit NR1. The test can be described thus: Immunocytochemical localization of NMDA receptor subunit NR1 in spinal cord of arthritic rats. Format: in vivo, rat. Particulars: 4 hours, Genistein 1 mM spinal pre-treatment, cycloheximide 100 mg/kg i.p. An excerpt:
Cycloheximide (100 milligrams per kilogram (mg/kg) intraperitoneal (i.p.) was used in some studies to determine if the alterations observed for the NMDA NR1 receptor subunit could be attributed to newly synthesized NR1 protein.
Twenty-four rats in 3 separate groups were used for immunocytochemical studies. One group of rat (n=8) was a naive control. The other 2 groups (n=16) of rats received surgical placement of the microdialysis fiber placement. On the day after microdialysis fiber placement, the animals were treated spinally with either Genistein (1 mM) or vehicle (50% DMSO in aCSF) for 1.5 hours (n=8 for each group). Then the left knee joint of all sixteen rats was injected with 0.1 ml of kaolin and carrageenan.
Animals were anesthetized and transcardially perfused with a brief warm saline rinse followed by fixative solution (4% paraformaldehyde in 0.1 M phosphate buffer, pH 7.4). The tissues were soaked overnight in 30% buffered sucrose and cut at 30 microns on a sliding microtome. For light microscopy, the tissues from animals (n=8) were permeabilized with a 50% buffered ethanol treatment. Tissue sections were then stained immunocytochemically for glutamate receptor subunit NR1 and phospho-NR1. Primary antibodies to be used for staining include anti-NMDA NR1 NMDA receptor (0.5–1 milligrams per milliliter (mg/ml)) purchased from Chemlcon Inc. (Pittsburgh, Pa.). Other neurotransmitter and receptor primary antibodies against NMDA NR2C, mGluR1, and mGluR5 were used as stain specificity controls. The primary antibodies were diluted in phosphate buffered saline (PBS, pH 7.6) with 0.1% BSA for overnight incubation on the spinal cord tissues. After washing in PBS, the tissue sections were incubated in the appropriate secondary antibody, either anti-mouse or anti-rabbit IgG (1:100, 30 minutes) and in avidin-biotin complex (ABC, 1:100, Vector Laboratories, Burlingame, Calif.). Sections were reacted with diaminobenzidine (DAB) solution (1.5 mg/ml) as the chromogen and peroxide (0.5 mg/ml) to produce a dense reaction product. To further intensify the reaction product particularly for visualization of nuclear rings, some tissues were reacted with colloidal gold conjugated IgG and reacted with a silver chloride solution to produce an intense black reaction product (Takizawa et al., J. Histochemistry & Cytochemistry, 42, 1615–1623 (1994)).
Immunocytochemical controls included sections processed in the absence of the primary or secondary antibody or ABC reagents. The specificity of the transmitter antibodies was confirmed by appearance of a single band by Western blot. In addition to use of the C-terminus NR1 antibody from ChemIcon, an antibody directed to the N-terminus of the NR1 protein was used as control (1 mg/ml; BD PharMingen, San Diego, Calif.). […]

A further test has as its system TNFα. The test can be described thus: TNFα release by ELISA from SW982 synovial cells treated with NMDA and ACPD. Format: cell-based, human. The following applies: 24 hours, NMDA (5 mM) and ACPD (5 mM), K252a (100 nM). How it is done:
The cultured cell lines used in these studies were the human neuroblastoma clonal line, SHSY5Y, and the human synovial sarcoma clonal line, SW982, both available through the American Tissue Type Culture Collection (item number CRL 2266 and HTB-93, respectively). Cells were grown in Dulbecco's Modification of Eagles Medium (DMEM) without L-glutamine, with 4.5 grams/Liter glucose, and with 10% bovine fetal serum in a tissue culture incubator at 37° C. in a gaseous mixture of O2/CO2. Cells were routinely split as necessary to maintain proper cell density. Cells were removed from plates by adding TRYPSIN/EDTA in Hank's Balanced Salt solution. After cell counts, approximately 10,000 cells were plated per well in a culture dish. For experiments, the cells were plated into 35 mm Petri dishes or 6- or 24-well plates as needed.
For detection of released Tumor Necrosis Factor alpha (TNFα) and some western blot experiments, cells were exposed to the two glutamate agonists NMDA (5 mM) and ACPD (5 mM), in the presence or absence of the tyrosine kinase inhibitors Genistein […] or K252a (100 nM). […]
The release of the inflammatory mediator and initiator of inflammatory cascades, TNFα was measured by ELISA using a commercially available kit (R&D Quantikine, Catalog Number DTA50) specific for human TNFα. […]
In general terms: An ELISA detects its analyte on a solid surface through an enzyme-linked reagent.

In test [2] the test system is rat arthritis model. Kind of test: Paw withdrawal latency (PWL) to radiant heat in rat kaolin/carrageenan knee joint inflammation model. Format: in vivo. Particulars: for development of secondary hyperalgesia: spinal microdialysis pre-treatment, 4 hours after induction of arthritis. How it is done: All studies followed the guidelines of the Institute Animal Care and Use Committee, in accordance with the guidelines of the National Institutes of Health. All animals were hosted in a room with a constant ambient temperature of 22° C. and 12 hour light/dark cycle with free access to food and water. Eighty-five Sprague-Dawley rats (250–300 grams) total were used in experiments conducted for biochemical, behavioral, and immunocytochemistry studies. […] On Day 2 baseline behavioral testing was followed by infusion of agents for 1.5 hours (pretreatment) prior to induction of knee joint inflammation under brief anesthesia. Behavioral testing was repeated 4 hours after induction of joint inflammation. Anesthetized animals were either transcardially perfused with aldehydes for immunohistochemical studies or fresh, frozen tissues collected for biochemical studies.
A microdialysis fiber was implanted into the spinal dorsal horn of anesthetized rats (sodium pentobarbital, 50 mg/kg) one day prior to the induction of arthritis according to the procedure of Skilling et al. (J. Neurochem., 51:127–132 (1988)), as described in Sluka et al. (Neurosci. Lett., 145:141–144 (1992)). Briefly, a small midline incision was made in the skin over the T12 vertebral level. The vertebrae were cleared of muscle and two 1 millimeter (mm) holes were drilled in the lateral aspect of both sides of the T12 vertebrae to expose the L4 spinal segment. A microdialysis fiber ([…], 45,000 MW cut-off, Hospal, AN69, Hospal Industrie, Meyzieu, France), was passed transversely across the deep dorsal horn and stabilized with dental cement. The microdialysis fiber was then passed through the holes in the vertebrae and transversely through the dorsal horn of the spinal cord. A 2 mm section of the microdialysis fiber lies in the dorsal horn at the level of L3–4 segment. The tubing was coated with epoxy except for a permeable portion passing through the spinal grey matter. The microdialysis fiber was connected to PE20 tubing (Becton Dickinson and Company, San Mateo, Calif.) which was tunneled under the skin to the nape of the neck. Alternatively as a systemic control for drug administration, the microdialysis fiber was implanted only in the subcutaneous tissue over the back muscle and tunneled to the neck. Artificial cerebrospinal fluid (aCSF) was made as described by Sorkin et al. (J. Neurosci. Methods, 23, 131–138 (1988)) and was infused (5 microliters/minute) for 1.5 hours and then the tube was heat-sealed for use on the following day.
Dose response curves were generated for Genistein with animals receiving Genistein spinally at concentration of 0.2 mM (n=3), 0.5 mM (n=3), 1 mM (n=9), and 2 mM (n=3). Animals received Lavendustin A or B spinally at concentrations of 0.1 mM (n=3), 0.5 mM (n=3), and 1 mM (n=5) as a positive and negative control for Genistein. […] Daidzein was tested at a dose of 1 mM (n=3). […] Eight additional animals received the vehicle, 50% DMSO in aCSF, as a control.
(§1) An acute inflammatory response restricted to the knee joint can be induced by the injection of 3% kaolin and 3% carrageenan (in sterile saline; 0.1 ml; pH 7.4) into the joint cavity while the animal is briefly anesthetized with sodium methohexital (Brevital, 60 mg/kg, i.p.). Kaolin and carrageenan were obtained from Fisher Scientific, St. Louis, Mo. The knee joint is flexed manually until the rat awakes (approximately 5–10 minutes). In this arthritis model in the awake rat, localized joint swelling, as well as limping and guarding of the limb, are well developed at 4 hours (Sluka et al., Pain, 59, 95–100 (1994)) when behavioral testing begins.
Fifty-five rats were used for behavioral studies. Four hours after induction of the arthritis, the joint is swollen and increased withdrawal responses to radiant heat and spontaneous guarding of the limb were noted. The increased responsiveness to noxious stimuli indicates the presence of secondary hyperalgesia. […]

Test [3] relates to rat arthritis model. Kind of test: Knee joint circumference and joint temperature in kaolin/carrageenan knee joint inflammation model. Format: in vivo. The following applies: 4 hours after kaolin/carrageenan; spinal pre-treatment. How it is done:
as §1
Knee joint circumference is measured in centimeters (cm) with a flexible tape measure around the center of the knee joint while the joint is held in extension as done with patients in the clinical setting as an indication of increases in joint volume. The knee joints of anesthetized rats are measured before (baseline) and four hours following injection of the knee joint with kaolin and carrageenan.
Temperature readings were documented numerically with a temperature probe after the rat is reanesthetized with sodium pentobarbital (50 mg/kg, i.p.) just prior to perfusion with aldehydes for histological preservation. Comparative temperature differences were made between the baseline temperature and the temperature four hours after induction of inflammation.

In the next test the test system is NMDA currents. The following applies: patch clamp studies; cited from earlier work. In general terms: The patch-clamp technique gives a direct electrical read-out from membranes.

On to `C[C@@H]1C[C@@H]([C@H](O)CC2CC(=O)NC(=O)C2)C(=O)[C@@H](C)C1` [Cycloheximide], for which the “staining for NR1 in spinal cord” value is “did not totally reduce the staining to baseline” in test [1] and “reduced the increase in NR1 staining by about half” in test [1] (listed as cycloheximide).
In the case of `COC(=O)[C@@]1(O)C[C@H]2O[C@]1(C)n1c3ccccc3c3c4c(c5c6ccccc6n2c5c31)C(=O)NC4` [K252a], the “NMDA/ACPD-promoted release of TNFα” value with TNFα was “completely abolished”.
In the case of `O=C(O)c1cc(N(Cc2ccccc2O)Cc2cc(O)ccc2O)ccc1O` [Lavendustin A], the “most effective dose in pre-treatment animals” value in the test on rat arthritis model [2] (concentration inside the microdialysis fiber, spinal administration) is recorded as 0.5 mM. In the test with rat arthritis model [2] (spinal microdialysis pre-treatment 1.5 hours, PWL to radiant heat 4 hours after kaolin/carrageenan), the “PWL decrease induced by knee joint inflammation” value is listed as “significantly (p<0.05 versus 4 hours vehicle group) attenuated the PWL decreases”. The “development of secondary hyperalgesia” value in the test with rat arthritis model [2] is “significantly abrogated the development of secondary hyperalgesia”. In the test with rat arthritis model [3], the joint circumference entry is “expected increases” and the joint temperature result is “expected increases”. The “effect on NMDA currents” value with NMDA currents is reported as “reversibly depresses NMDA currents”.
On to `O=C(O)c1cc(N(Cc2ccccc2O)Cc2ccccc2O)ccc1O` [Lavendustin B], for which the “development of secondary hyperalgesia” value with rat arthritis model [2] is recorded as “ineffective in altering the nociceptive outcome of knee joint inflammation”.

Source of the values: patent US7022484B2, “Methods for treating neuropathological states and neurogenic inflammatory states and methods for identifying compounds useful therein” (Board of Regents, The University of Texas System, priority 2000, dated 2006).
